Reference: paper PMC5435687 (Scientific Reports, 2017)

System: SH-SY5Y cells transfected with AP180-C
Assay: Uptake in cells overexpressing AP180-C
Type: cell-based, human
Conditions: SH-SY5Y 24 h post transfection; HF488-labelled Aβ 1 µM 1 h or AF647-Trf 5 µg/ml 5 min; low and high mRFP gates; N = 2, n = 2–4
Experimental: Flow cytometry was used to quantify cellular uptake. The samples were washed in serum free medium (1x for experiments including only Aβ and 3x for experiments with Trf) prior to incubation with Aβ peptides and/or other reagents in serum free medium supplemented with 30 mM HEPES and 2% B-27. For experiments including Trf B-27 was omitted, as outlined above. Prior to analysis, the cells were washed 1x (for experiments including only Aβ) or 3x (for experiments including Aβ and dextran 10 kDa or Trf) in serum free medium, detached by trypsin-EDTA for 10 min followed by addition of FBS-supplemented cell culture medium to inhibit further proteolytic degradation. All samples were kept on ice until they were analysed on a Guava EasyCyte 8HT (Millipore, Darmstadt, Germany) that automatically retrieves samples from a 96-well plate. In order to exclude effects due to difference in delay time we used mixed order of analysis, loading only a few samples at a time with the remaining samples kept on ice. The cell counting gate was determined using propidium iodide (0.5 µM, not washed away prior to analysis) and calcein-AM (10 nM, 15 min staining) to distinguish live and dead cells, and for each sample 5,000 cells from within the live gate were counted and analysed. HF488, AlexaFluor488, EGFP and calcein-AM were excited by a 488 nm laser and their fluorescence was detected through a 525/30 nm filter. Propidium iodide and mRFP were excited by the 488 nm laser but detected through a 692/46 nm filter. HF647 and AlexaFluor647 were excited with a 635 nm laser and detected through a 661/19 nm filter. Compensation was performed to adjust for bleed through in experiments including mRFP. Mean cellular uptake was estimated as the average fluorescence intensity of all cells gated within the live region and all individual experiments were performed with three technical replicates (n = 3) unless else is stated. The average fluorescence intensity was baseline corrected by subtracting the signal for unstained cells. […]

Row | Substance | uptake in AP180-C transfected cells compared to non-transfected cells
1 | Aβ(1–40): Synthetic 40 residue amyloid-β peptide conjugated to HiLyte Fluor HF488 (or HF647) at the N-terminus, from Anaspec | neither Aβ(1–40) nor Aβ(1–42) uptake was affected
2 | Aβ(1–42): Synthetic 42 residue amyloid-β peptide conjugated to HiLyte Fluor HF488 (or HF647) at the N-terminus, from Anaspec | small but statistically significant increase
